Test results published in patent publication US20040229821A1, “Orally administrable pharmaceutical compositions and methods for preventing food-drug interaction” (priority 2003, published 2004).
Where two headings read alike, the source gives them in different places.

What was measured:
[1] = molecular target: T1, trypsin (Bos taurus, UniProt P00760); details: cited from earlier work
T1 construct: gene PRSS1
T1 sequence (P00760 24-246): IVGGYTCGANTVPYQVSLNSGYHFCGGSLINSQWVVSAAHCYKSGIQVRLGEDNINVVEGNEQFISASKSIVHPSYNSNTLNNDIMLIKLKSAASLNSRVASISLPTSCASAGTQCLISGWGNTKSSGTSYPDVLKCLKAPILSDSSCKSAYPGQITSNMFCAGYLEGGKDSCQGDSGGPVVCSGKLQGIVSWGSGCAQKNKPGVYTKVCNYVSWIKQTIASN

[2] = dogs, oral; cited from earlier work
[3] = molecular target: thrombin (Homo sapiens, UniProt P00734); details: cited from earlier work
[4] = rats, oral; cited from earlier work
[5] = humans, oral; cited from earlier work
[6] = Pharmacokinetic test of Drug A in dogs, empty stomach vs after food intake; format: in vivo; details: oral
Description: (§1) Other oral thrombin inhibitors under development than Drug A have been reported to show changes of bioavailability by food intake. […] The above two substances have different activities not only on thrombin but also on trypsin. […] In other words, the bioavailability of S18326 with higher activity on trypsin was more affected by food intake than S31922. […] Its activity on trypsin has not yet been reported, but since it is an ariginine (Arg) derivative like S18326, it is anticipated to have high activity on trypsin. […] The bioavailability of melagatran is affected by food intake because it has a charge in the intestinal pH, and so its membrane permeability is decreased [D. Gustafsson et al., The direct thrombin inhibitor melagatran and its oral prodrug H376/95: Intestinal absorption properties, biochemical and pharmacodynamic effects, Thrombosis Res., 101(2001) 171-181]. In order to improve the decreased membrane permeability, its prodrug was prepared and confirmed to have improved bioavailability and to prevent the bioavailability variance by food intake. However, melagatran is also one in the series of strong basic group, amidine, and thus has a strong inhibitory effect on trypsin.
Drug A is an orally active thrombin inhibitor, and is effective for preventing or treating the formation of thrombus. […]

[7] = Pharmacokinetic test of Drug A in rats, empty stomach vs after food intake; format: in vivo; details: oral, absorbed well on an empty stomach
Description: as §1

[8] = molecular target: T1, trypsin; test: Activity (IC50) on trypsin; format: biochemical; details: stated in words
Description: as §1

Compound | IC50 [1] [nM] | Bioavailability after food intake [2] [%] | Bioavailability on an empty stomach [2] [%] | IC50 [3] [nM] | Change of bioavailability after food intake [5] | also measured
NCCCCC(NC(=O)C1(C(=O)NCCc2ccccc2)CCCC1)B(O)O (stereo not drawn) [Example S-31922] | 340 | 22 | 36 | 43 |  | 
R-Piq-Pro-Arg-H |  |  |  |  | remarkably decreased | Change of bioavailability after food intake [4]: remarkably decreased
CC(=O)N[C@H](Cc1ccccc1)C(=O)N(CC(=O)N[C@@H](CCCN=C(N)N)B(O)O)C1CCCC1 [Example S-18326] | 20 | 6 | 27 | 3.6 |  | 
N=C(N)c1ccc(CNC(=O)[C@@H]2CCCN2C(=O)[C@H](NCC(=O)O)C(c2ccccc2)c2ccccc2)s1 [Drug A, (2S)-N-{5-[amino(imino)methyl]-2-thienyl}methyl-1-{(2R)-2-[(carboxymethyl)amino]-3,3-diphenylpropanoyl}-2-pyrrolidinecarboxamide] |  |  |  |  |  | Bioavailability after food intake relative to empty stomach ([6]; dog, in vivo, solution of Drug A, read-out: Bioavailability after food intake compared with on an empty stomach): 10%; Change of bioavailability when administered after food intake ([6]; absorbed well on an empty stomach): remarkably decreased; Change of bioavailability when administered after food intake [7]: remarkably decreased; Activity on the digestive enzyme trypsin [8]: high activity
N=C(N)c1ccc(CNC(=O)[C@@H]2CCN2C(=O)[C@H](NCC(=O)O)C2CCCCC2)cc1 [melagatran] |  |  |  |  | remarkably decreased | 
